Test results published in US8778888B2, “Cystine knot peptides binding to alpha IIb beta 3 integrins and methods of use” (The Board of Trustees of the Leland Stanford Junior …, priority 2009, dated 2014).

How the values were obtained:
[1] = target: T1, αIIbβ3 integrin (K562-αIIbβ3 cells) (Homo sapiens, UniProt P05106+P08514); assay: Cell binding assay on K562-αIIbβ3 cells (flow cytometry); conditions: K562-αIIbβ3 versus K562-αvβ3 cells
T1 construct: expressed in transfected cells; host or cells: K562 leukemia cells (from S. Blystone)
Method: K562 cells stably expressing αIIbβ3, αvβ3, or αvβ5 were obtained from S. Blystone and maintained in IMDM media (Gibco) containing 10% FBS and 1.0 mg/mL geneticin. For binding assays, 10^5 cells were suspended in IBB, and varying concentrations of AgRP peptides were added. After 3 hour incubation at 4° C., the cells were centrifuged, aspirated, and resuspended in ice-cold BPBS containing a 1:20 dilution of fluorescein-conjugated goat anti-His antibody (Bethyl) for […]. The cells were then centrifuged, aspirated, and stored as pellets on ice until analysis by flow cytometry using a BD FACS Caliber instrument Becton Dickinson. Binding data was analyzed with FlowJo (Treestar, Inc.) and data was fit to sigmoidal plots using Kaleidagraph (Synergy Software) to calculate equilibrium dissociation constants. Experiments were performed at least 3 times and data are presented as average values with standard deviations.
To determine the integrin binding affinities and specificities of the engineered AgRP peptides, direct binding assays were performed using K562 leukemia cells that have been transfected to stably express different integrin receptors See J. Cell Biol. 127(4) (1994). Cells were incubated in the presence of varying concentrations of AgRP peptides at 4° C., to minimize receptor internalization, followed by staining with a fluorescein-conjugated anti-hexahistidine antibody and analysis by flow cytometry. Equilibrium dissociation constants (KD values) were determined by plotting AgRP peptide concentration (log scale) versus normalized mean fluorescence intensity, then fitting the data to a sigmoidal curve.

human platelets = conditions: ADP-activated human platelets; comparison with eptifibatide
Method: Human platelets isolated by pheresis were obtained from the Stanford Blood Center and stored in serum with 7% acid/citrate/dextrose (ACD) solution. Prior to use, the platelets were centrifuged, aspirated, washed once with Tyrode's buffer (140 mM NaCl, 3 mM KCl, 12 mM NaHCO3, 0.4 mM NaH2PO4, 2 mM MgCl2, 0.1% glucose, pH 7.4), and counted using a haemacytometer. Counted platelets were resuspended in fresh plasma to a final concentration of approximately 2.8×10^8 cells/mL. 180 μL of the platelet solution, or approximately 5×10^7 platelets, were added to separate wells in a 96-well microtiter plate. AgRP peptide or eptifibatide (Cell Sciences) were added to the wells at varying concentrations, after which the platelets were activated with 25 μM ADP. Absorbance at 365 nm was monitored over 1 hr using a Synergy 4 microplate reader (BioTek Instrumentation) with readings taken every 35 s, with 3 s of shaking between readings. […] Experiments were performed at least 3 times.
Next, the effects of the engineered AgRP peptides on αIIbβ3-mediated platelet aggregation were studied. Three αIIbβ3-specific peptides (2bA, 2bJ, and 2bO) and two β3-specific peptides (b3A and b3I) were tested again. […] Microtiter plates containing platelets in serum in the presence or absence of AgRP peptides were activated using ADP at a final concentration of 25 μM, and absorbance at 365 nm was monitored over 1 h.

T1 sequence (P08514 32-887 limits assumed): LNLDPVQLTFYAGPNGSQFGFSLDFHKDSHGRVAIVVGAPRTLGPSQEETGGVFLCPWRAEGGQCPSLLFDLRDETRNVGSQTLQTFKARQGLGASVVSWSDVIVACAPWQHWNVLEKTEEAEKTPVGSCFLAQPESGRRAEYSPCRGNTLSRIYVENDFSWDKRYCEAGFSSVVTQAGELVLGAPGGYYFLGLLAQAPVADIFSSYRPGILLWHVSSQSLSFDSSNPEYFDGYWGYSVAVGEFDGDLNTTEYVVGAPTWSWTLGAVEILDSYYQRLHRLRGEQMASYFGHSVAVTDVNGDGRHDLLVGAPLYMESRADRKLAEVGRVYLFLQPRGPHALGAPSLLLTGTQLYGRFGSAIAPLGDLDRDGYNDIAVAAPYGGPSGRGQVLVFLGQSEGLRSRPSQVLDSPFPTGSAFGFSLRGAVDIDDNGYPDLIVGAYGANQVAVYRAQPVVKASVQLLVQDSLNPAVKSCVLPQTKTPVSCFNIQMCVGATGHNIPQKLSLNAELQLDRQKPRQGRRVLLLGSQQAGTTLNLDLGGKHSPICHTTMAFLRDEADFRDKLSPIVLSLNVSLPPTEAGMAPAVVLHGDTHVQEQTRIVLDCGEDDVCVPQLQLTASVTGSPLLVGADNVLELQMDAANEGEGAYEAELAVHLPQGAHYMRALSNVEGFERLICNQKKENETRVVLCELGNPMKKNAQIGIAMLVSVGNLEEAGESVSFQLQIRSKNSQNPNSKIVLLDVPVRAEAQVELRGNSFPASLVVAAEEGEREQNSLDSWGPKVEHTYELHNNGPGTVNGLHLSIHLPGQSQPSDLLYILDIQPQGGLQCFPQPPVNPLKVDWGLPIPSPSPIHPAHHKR
T1 sequence (P08514 891-1039 partner limits assumed): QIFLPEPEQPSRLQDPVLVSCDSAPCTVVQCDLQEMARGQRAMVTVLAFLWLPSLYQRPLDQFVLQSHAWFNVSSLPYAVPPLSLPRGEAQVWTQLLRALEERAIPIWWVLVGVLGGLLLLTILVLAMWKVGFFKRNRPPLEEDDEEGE
T1 sequence (P05106 27-788): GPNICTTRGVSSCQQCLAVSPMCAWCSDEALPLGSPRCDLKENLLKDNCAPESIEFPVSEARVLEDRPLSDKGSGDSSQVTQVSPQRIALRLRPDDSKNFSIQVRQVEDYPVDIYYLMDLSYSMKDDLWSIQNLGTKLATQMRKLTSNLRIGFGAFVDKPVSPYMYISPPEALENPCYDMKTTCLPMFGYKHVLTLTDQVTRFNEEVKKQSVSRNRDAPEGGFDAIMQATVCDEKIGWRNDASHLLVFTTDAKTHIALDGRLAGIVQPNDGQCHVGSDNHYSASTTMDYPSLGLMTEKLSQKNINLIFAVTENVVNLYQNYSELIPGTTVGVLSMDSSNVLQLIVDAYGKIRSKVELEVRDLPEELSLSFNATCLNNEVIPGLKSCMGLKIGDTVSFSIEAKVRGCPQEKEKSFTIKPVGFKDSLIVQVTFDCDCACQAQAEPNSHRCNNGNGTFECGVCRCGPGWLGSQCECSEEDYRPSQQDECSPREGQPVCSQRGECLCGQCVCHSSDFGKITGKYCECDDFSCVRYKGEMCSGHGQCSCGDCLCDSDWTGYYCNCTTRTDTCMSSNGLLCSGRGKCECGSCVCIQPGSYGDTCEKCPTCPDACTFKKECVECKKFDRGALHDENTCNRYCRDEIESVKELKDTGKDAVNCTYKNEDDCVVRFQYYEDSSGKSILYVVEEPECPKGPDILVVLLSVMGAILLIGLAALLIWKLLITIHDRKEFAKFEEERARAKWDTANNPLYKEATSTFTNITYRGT

| SMILES | integrin binding specificity on K562 cell lines [1] | inhibition of platelet aggregation (in words) (human platelets) |
| --- | --- | --- |
| CC(C)C[C@@H]1NC(=O)[C@@H]2CSSC[C@@H]3NC(=O)[C@H]([C@@H](C)O)NC(=O)[C@H](C)NC(=O)[C@H](C)NC(=O)[C@@H]4CCCN4C(=O)[C@H](CC(=O)O)NC(=O)[C@H](CSSC[C@H](NC(=O)CNC(=O)[C@H](CCCNC(=N)N)NC(=O)[C@@H]4CCCN4C(=O)[C@H](CCCCN)NC(=O)[C@H](CC(=O)O)NC(=O)[C@H](CC(=O)O)NC(=O)[C@H](CC(=O)O)NC(=O)[C@H](CC(=O)O)NC(=O)[C@H](CCCCN)NC(=O)[C@H](Cc4ccc(O)cc4)NC(=O)[C@H](CC(=O)O)NC(=O)[C@@H](NC(=O)[C@@H](N)Cc4ccc(O)cc4)C(C)C)C(=O)N[C@@H](C(C)C)C(=O)N[C@@H](CCCNC(=N)N)C(=O)N[C@@H](CC(C)C)C(=O)N[C@@H](Cc4c[nH]cn4)C(=O)N[C@@H](CCC(=O)O)C(=O)N[C@@H](CO)C(=O)N2)NC(=O)[C@H](CSSC[C@@H](C(=O)N[C@@H](CCCNC(=N)N)C(=O)N[C@H](C(=O)N[C@@H](CCCNC(=N)N)C(=O)N[C@@H](Cc2c[nH]cn2)C(=O)N[C@@H](Cc2c[nH]cn2)C(=O)N[C@@H](Cc2c[nH]cn2)C(=O)N[C@@H](Cc2c[nH]cn2)C(=O)N[C@@H](Cc2c[nH]cn2)C(=O)N[C@@H](Cc2c[nH]cn2)C(=O)O)[C@@H](C)O)NC(=O)[C@H](Cc2ccc(O)cc2)NC(=O)[C@@H]2CSSC[C@H](NC(=O)[C@H](Cc4ccc(O)cc4)NC3=O)C(=O)N[C@@H](CC(C)C)C(=O)N[C@@H](CCCCN)C(=O)N[C@@H](CCCNC(=N)N)C(=O)NCC(=O)N[C@@H](CC(=O)O)C(=O)N[C@@H](Cc3c[nH]c4ccccc34)C(=O)N[C@@H](CCCCN)C(=O)NCC(=O)N[C@@H](CCCCN)C(=O)N2)NC(=O)[C@@H]2CCCN2C(=O)[C@H](C(C)C)NC(=O)[C@H](CCC(N)=O)NC(=O)[C@H](CCC(N)=O)NC(=O)CNC1=O [Clone 2bA] | bound K562-αIIbβ3 cells only |  |
| CC(C)C[C@@H]1NC(=O)[C@@H]2CSSC[C@@H]3NC(=O)[C@H]([C@@H](C)O)NC(=O)[C@H](C)NC(=O)[C@H](C)NC(=O)[C@@H]4CCCN4C(=O)[C@H](CC(=O)O)NC(=O)[C@H](CSSC[C@H](NC(=O)CNC(=O)[C@H](CCCNC(=N)N)NC(=O)[C@@H]4CCCN4C(=O)[C@H](CCCCN)NC(=O)[C@H](CC(=O)O)NC(=O)[C@H](CC(=O)O)NC(=O)[C@H](CC(=O)O)NC(=O)[C@H](CC(=O)O)NC(=O)[C@H](CCCCN)NC(=O)[C@H](Cc4ccc(O)cc4)NC(=O)[C@H](CC(=O)O)NC(=O)[C@@H](NC(=O)[C@@H](N)Cc4ccc(O)cc4)C(C)C)C(=O)N[C@@H](C(C)C)C(=O)N[C@@H](CCCNC(=N)N)C(=O)N[C@@H](CC(C)C)C(=O)N[C@@H](Cc4c[nH]cn4)C(=O)N[C@@H](CCC(=O)O)C(=O)N[C@@H](CO)C(=O)N2)NC(=O)[C@H](CSSC[C@@H](C(=O)N[C@@H](CCCNC(=N)N)C(=O)N[C@H](C(=O)N[C@@H](CCCNC(=N)N)C(=O)N[C@@H](Cc2c[nH]cn2)C(=O)N[C@@H](Cc2c[nH]cn2)C(=O)N[C@@H](Cc2c[nH]cn2)C(=O)N[C@@H](Cc2c[nH]cn2)C(=O)N[C@@H](Cc2c[nH]cn2)C(=O)N[C@@H](Cc2c[nH]cn2)C(=O)O)[C@@H](C)O)NC(=O)[C@H](Cc2ccc(O)cc2)NC(=O)[C@@H]2CSSC[C@H](NC(=O)[C@H](Cc4ccc(O)cc4)NC3=O)C(=O)N[C@@H](CC(N)=O)C(=O)N[C@@H](CCCCN)C(=O)N[C@@H](CCCNC(=N)N)C(=O)NCC(=O)N[C@@H](CC(=O)O)C(=O)N[C@@H](Cc3c[nH]c4ccccc34)C(=O)N[C@@H](CCCNC(=N)N)C(=O)N[C@@H](CO)C(=O)N[C@@H](CCCCN)C(=O)N2)NC(=O)[C@@H]2CCCN2C(=O)[C@H](C(C)C)NC(=O)[C@H](CCC(N)=O)NC(=O)[C@H](CCC(N)=O)NC(=O)CNC1=O [Clone 2bJ] | bound K562-αIIbβ3 cells only |  |
| CC(C)C[C@@H]1NC(=O)[C@@H]2CSSC[C@@H]3NC(=O)[C@H]([C@@H](C)O)NC(=O)[C@H](C)NC(=O)[C@H](C)NC(=O)[C@@H]4CCCN4C(=O)[C@H](CC(=O)O)NC(=O)[C@H](CSSC[C@H](NC(=O)CNC(=O)[C@H](CCCNC(=N)N)NC(=O)[C@@H]4CCCN4C(=O)[C@H](CCCCN)NC(=O)[C@H](CC(=O)O)NC(=O)[C@H](CC(=O)O)NC(=O)[C@H](CC(=O)O)NC(=O)[C@H](CC(=O)O)NC(=O)[C@H](CCCCN)NC(=O)[C@H](Cc4ccc(O)cc4)NC(=O)[C@H](CC(=O)O)NC(=O)[C@@H](NC(=O)[C@@H](N)Cc4ccc(O)cc4)C(C)C)C(=O)N[C@@H](C(C)C)C(=O)N[C@@H](CCCNC(=N)N)C(=O)N[C@@H](CC(C)C)C(=O)N[C@@H](Cc4c[nH]cn4)C(=O)N[C@@H](CCC(=O)O)C(=O)N[C@@H](CO)C(=O)N2)NC(=O)[C@H](CSSC[C@@H](C(=O)N[C@@H](CCCNC(=N)N)C(=O)N[C@H](C(=O)N[C@@H](CCCNC(=N)N)C(=O)N[C@@H](Cc2c[nH]cn2)C(=O)N[C@@H](Cc2c[nH]cn2)C(=O)N[C@@H](Cc2c[nH]cn2)C(=O)N[C@@H](Cc2c[nH]cn2)C(=O)N[C@@H](Cc2c[nH]cn2)C(=O)N[C@@H](Cc2c[nH]cn2)C(=O)O)[C@@H](C)O)NC(=O)[C@H](Cc2ccc(O)cc2)NC(=O)[C@@H]2CSSC[C@H](NC(=O)[C@H](Cc4ccc(O)cc4)NC3=O)C(=O)N[C@@H](CCCCN)C(=O)N[C@@H](CCCCN)C(=O)N[C@@H](CCCNC(=N)N)C(=O)NCC(=O)N[C@@H](CC(=O)O)C(=O)N[C@@H](Cc3c[nH]c4ccccc34)C(=O)N[C@@H](CCCCN)C(=O)N[C@@H](CCC(=O)O)C(=O)N[C@@H](CCCNC(=N)N)C(=O)N2)NC(=O)[C@@H]2CCCN2C(=O)[C@H](C(C)C)NC(=O)[C@H](CCC(N)=O)NC(=O)[C@H](CCC(N)=O)NC(=O)CNC1=O [Clone 2bO] | bound K562-αIIbβ3 cells only |  |
| CC(C)C[C@@H]1NC(=O)[C@@H]2CSSC[C@@H]3NC(=O)[C@H]([C@@H](C)O)NC(=O)[C@H](C)NC(=O)[C@H](C)NC(=O)[C@@H]4CCCN4C(=O)[C@H](CC(=O)O)NC(=O)[C@H](CSSC[C@H](NC(=O)CNC(=O)[C@H](CCCNC(=N)N)NC(=O)[C@@H]4CCCN4C(=O)[C@H](CCCCN)NC(=O)[C@H](CC(=O)O)NC(=O)[C@H](CC(=O)O)NC(=O)[C@H](CC(=O)O)NC(=O)[C@H](CC(=O)O)NC(=O)[C@H](CCCCN)NC(=O)[C@H](Cc4ccc(O)cc4)NC(=O)[C@H](CC(=O)O)NC(=O)[C@@H](NC(=O)[C@@H](N)Cc4ccc(O)cc4)C(C)C)C(=O)N[C@@H](C(C)C)C(=O)N[C@@H](CCCNC(=N)N)C(=O)N[C@@H](CC(C)C)C(=O)N[C@@H](Cc4c[nH]cn4)C(=O)N[C@@H](CCC(=O)O)C(=O)N[C@@H](CO)C(=O)N2)NC(=O)[C@H](CSSC[C@@H](C(=O)N[C@@H](CCCNC(=N)N)C(=O)N[C@H](C(=O)N[C@@H](CCCNC(=N)N)C(=O)N[C@@H](Cc2c[nH]cn2)C(=O)N[C@@H](Cc2c[nH]cn2)C(=O)N[C@@H](Cc2c[nH]cn2)C(=O)N[C@@H](Cc2c[nH]cn2)C(=O)N[C@@H](Cc2c[nH]cn2)C(=O)N[C@@H](Cc2c[nH]cn2)C(=O)O)[C@@H](C)O)NC(=O)[C@H](Cc2ccc(O)cc2)NC(=O)[C@@H]2CSSC[C@H](NC(=O)[C@H](Cc4ccc(O)cc4)NC3=O)C(=O)N[C@@H](C(C)C)C(=O)NCC(=O)N[C@@H](CCCNC(=N)N)C(=O)NCC(=O)N[C@@H](CC(=O)O)C(=O)N[C@@H](C(C)C)C(=O)N[C@@H](CCCNC(=N)N)C(=O)N[C@@H](CCCNC(=N)N)C(=O)N[C@@H](CCCCN)C(=O)N2)NC(=O)[C@@H]2CCCN2C(=O)[C@H](C(C)C)NC(=O)[C@H](CCC(N)=O)NC(=O)[C@H](CCC(N)=O)NC(=O)CNC1=O [b3A] | bound both K562-αIIbβ3 and K562-αvβ3 cells | slightly more effective |
